System: Human histocytic lymphoma U937 cells
Experiment: Intracellular ROS fluorescence assay (DCF-DA / DHR123) in U937 cells exposed to H2O2 and LPS
Type: cell-based
Experimental: Human histocytic lymphoma U937 cells (ATCC, Manassas, Va.) were initially cultured in RPMI-1640 media (ATCC, Manassas, Va.) containing 10% serum and 1% penicillin, and then transferred at a concentration of 2×10^5 cells/ml into media containing 1 ng/ml PMA for 48 hours at 37° C. The cells were starved overnight in serum-free culture media before exposure to dye.
Cells were washed with PBS buffer twice, and divided into two sets to be incubated with DCF-DA or DHR123 (Calibochem, La Jolla, Calif.) for 30 minutes at 30° C. Cells are washed with PBS twice to remove residual dye. Appropriate experimental controls are also maintained.
Cells are then divided into several groups, and various amounts of a 1% solution of α-tocopherol (Vitamin E), substance 1, or substance 2 is added to each of the groups, and incubated at 37° C. for 15 minutes. Cells then were washed twice with PBS to remove residual amounts of test compounds. ROS agents H2O2 and LPS then were added and incubated for different periods of time. Fluorescence of the cells then were read at excitation 485 nm and emission 530 nm for up to 5 hours.

SMILES: Cc1c(C)c2c(c(C)c1O)CC[C@@](C)(CCC[C@H](C)CCC[C@H](C)CCCC(C)C)O2 [α-tocopherol]
- reduction of oxidative level (2 ppm active, 2.5 mM hydrogen peroxide, FIG. 2): approximately 30%
- capability in scavenging ROS or free radicals (10 ppm and 100 ppm active compared with 2 ppm, 2.5 mM hydrogen peroxide, FIG. 2): did not show enhanced capability in scavenging ROS or free radicals
- cell fluorescence versus cells incubated without test compound (two hours of incubation, ROS at 2.5 mM and ROS stimulant, FIG. 1): cells incubated in the absence of a test compound but in the presence of the ROS at 2.5 mM and ROS stimulant fluoresce greater
